Test results as given in patent US11319299B2, “Substituted carboxamides as inhibitors of WDR5 protein-protein binding” (PROPELLON THERAPEUTICS INC., priority 2016, dated 2022).

biological target: WDR5 (Homo sapiens (Human), UniProt P61964); experiment: Surface Plasmon Resonance (SPR) assay, KD and residence time; format: binding; settings: surface plasmon resonance (SPR) assay; read-out: WDR5 binding affinity (KD)

Row | SMILES | Kd [nM]
1 | CC(=O)Nc1ccc(-c2cc(NC(=O)c3cn(C)c(=O)cc3C(F)F)c(N3CCN(C)C(C)C3)cc2F)cn1 (stereo in doubt) [Example 217, N-[5-(6-acetamidopyridin-3-yl)-4-fluoro-2-[(3R)-3,4-dimethylpiperazin-1-yl]phenyl]-4-(difluoromethyl)-1-methyl-6-oxopyridine-3-carboxamide] | 4.32
2 | O=C(Nc1cc(-c2cnc(N3CCOCC3)nc2)c(F)cc1N1CCN2CCOCC2C1)c1c[nH]c(=O)cc1C(F)(F)F (stereo not drawn) [Example 120, N-[2-(3,4,6,7,9,9a-hexahydro-1H-pyrazino[2,1-c][1,4]oxazin-8-yl)-4-fluoro-5-(2-morpholin-4-ylpyrimidin-5-yl)phenyl]-6-oxo-4-(trifluoromethyl)-1H-pyridine-3-carboxamide] | > 200
3 | C[C@@H]1CN(c2cc(F)c(-c3ccccc3)cc2NC(=O)c2c[nH]c(=O)cc2C(F)(F)F)C[C@H](C)N1C [Example 146, N-[4-fluoro-5-phenyl-2-[(3R,5S)-3,4,5-trimethylpiperazin-1-yl]phenyl]-6-oxo-4-(trifluoromethyl)-1H-pyridine-3-carboxamide] | 6.02
4 | C[C@@H]1CN(c2cc(F)c(-c3ccc(C(F)(F)F)cc3)cc2NC(=O)c2c[nH]c(=O)cc2C(F)(F)F)C[C@H](C)N1C [Example 144, N-[4-fluoro-2-[(3R,5S)-3,4,5-trimethylpiperazin-1-yl]-5-[4-(trifluoromethyl)phenyl]phenyl]-6-oxo-4-(trifluoromethyl)-1H-pyridine-3-carboxamide] | 6.06
5 | C[C@@H]1CN(c2cc(F)c(C3=CCN(CC4CCOCC4)CC3)cc2NC(=O)c2c[nH]c(=O)cc2C(F)(F)F)C[C@H](C)N1C [Example 167, N-[4-fluoro-5-[1-(oxan-4-ylmethyl)-3,6-dihydro-2H-pyridin-4-yl]-2-[(3R,5S)-3,4,5-trimethylpiperazin-1-yl]phenyl]-6-oxo-4-(trifluoromethyl)-1H-pyridine-3-carboxamide] | 5.76
6 | C[C@@H]1CN(c2cc(F)c(-c3ccc(OCC4CC4)cc3)cc2NC(=O)c2cn(C)c(=O)cc2C(F)(F)F)C[C@H](C)N1C [Example 228, N-[5-[4-(cyclopropylmethoxy)phenyl]-4-fluoro-2-[(3R,5S)-3,4,5-trimethylpiperazin-1-yl]phenyl]-1-methyl-6-oxo-4-(trifluoromethyl)pyridine-3-carboxamide] | 7.26
7 | CC1CN(c2cc(F)c(-c3cnc(N4CCOCC4)nc3)cc2NC(=O)c2cccnc2)CCN1C (stereo in doubt) [Example 80, N-[4-fluoro-5-(2-morpholin-4-ylpyrimidin-5-yl)-2-[(3R)-3,4-dimethylpiperazin-1-yl]phenyl]pyridine-3-carboxamide] | > 200
8 | C[C@@H]1CN(c2cc(F)c(-c3ccc(Cl)cc3)cc2NC(=O)c2c[nH]c(=O)cc2C(F)(F)F)C[C@H](C)N1C [Example 147, N-[5-(4-chlorophenyl)-4-fluoro-2-[(3R,5S)-3,4,5-trimethylpiperazin-1-yl]phenyl]-6-oxo-4-(trifluoromethyl)-1H-pyridine-3-carboxamide] | 4.44

Other lines, results leading:

Row | Kd [nM] | SMILES
9 | 8.13 | CC1CN(c2cc(F)c(-c3cnc(N4CCOCC4)nc3)cc2NC(=O)c2cn(C)nc2C(F)(F)F)CCN1C (stereo in doubt) [Example 284, N-[4-fluoro-5-(2-morpholin-4-ylpyrimidin-5-yl)-2-[(3R)-3,4-dimethylpiperazin-1-yl]phenyl]-1-methyl-3-(trifluoromethyl)pyrazole-4-carboxamide]
10 | 13.7 | C[C@@H]1CN(c2cc(F)c(-c3cnc(N4CCOCC4)nc3)cc2NC(=O)c2ccc(F)c(Cl)c2F)C[C@H](C)N1C [Example 266, 3-chloro-2,4-difluoro-N-[4-fluoro-5-(2-morpholin-4-ylpyrimidin-5-yl)-2-[(3R,5S)-3,4,5-trimethylpiperazin-1-yl]phenyl]benzamide]
11 | 1.54 | C[C@@H]1CN(c2cc(F)c(C3=CCN(c4ncc(Cl)cn4)CC3)cc2NC(=O)c2c[nH]c(=O)cc2C(F)(F)F)C[C@H](C)N1C [Example 275, N-[5-[1-(5-chloropyrimidin-2-yl)-3,6-dihydro-2H-pyridin-4-yl]-4-fluoro-2-[(3R,5S)-3,4,5-trimethylpiperazin-1-yl]phenyl]-6-oxo-4-(trifluoromethyl)-1H-pyridine-3-carboxamide]

same assay, conditions: surface plasmon resonance (SPR); read-out: WDR5 binding affinity (KD)

Row | Kd [nM] | SMILES
12 | 1.41 | C[C@@H]1CN(c2cc(F)c(C3=CCN(c4ncc(C=O)cn4)CC3)cc2NC(=O)c2c[nH]c(=O)cc2C(F)F)C[C@H](C)N1C [Example 646, 4-(difluoromethyl)-N-[4-fluoro-5-[1-(5-formylpyrimidin-2-yl)-3,6-dihydro-2H-pyridin-4-yl]-2-[(3R,5S)-3,4,5-trimethylpiperazin-1-yl]phenyl]-6-oxo-1H-pyridine-3-carboxamide]
13 | 1.06 | CC1CN(c2cc(F)c(-c3ccnc(N4CCOCC4)n3)cc2NC(=O)c2ccc(F)cc2C(F)F)CCN1C (stereo in doubt) [Example 655, 2-(difluoromethyl)-4-fluoro-N-[4-fluoro-5-(2-morpholin-4-ylpyrimidin-4-yl)-2-[(3R)-3,4-dimethylpiperazin-1-yl]phenyl]benzamide]
14 | 1.76 | C[C@@H]1CN(c2ccc(-c3cc(NC(=O)c4c[nH]c(=O)cc4C(F)F)c(N4CCN(C)[C@H](C)C4)cc3F)cn2)CCO1 (stereo in doubt) [Example 507, 4-(difluoromethyl)-N-[4-fluoro-2-[(3R)-3,4-dimethylpiperazin-1-yl]-5-[6-[(2R)-2-methylmorpholin-4-yl]pyridin-3-yl]phenyl]-6-oxo-1H-pyridine-3-carboxamide]
15 | 2.4 | C[C@@H]1CN(c2cc(F)c(-c3ccnc(N4CCOCC4)n3)cc2NC(=O)c2c[nH]c(=O)cc2C(F)F)C[C@H](C)N1C [Example 692, 4-(difluoromethyl)-N-[4-fluoro-5-(2-morpholin-4-ylpyrimidin-4-yl)-2-[(3R,5S)-3,4,5-trimethylpiperazin-1-yl]phenyl]-6-oxo-1H-pyridine-3-carboxamide]
16 | 1.87 | CC1CN(c2cc(F)c(C3=CCCN(c4ncccn4)C3)cc2NC(=O)c2ccc(F)cc2C(F)(F)F)CCN1C (stereo in doubt) [Example 649, 4-fluoro-N-[4-fluoro-5-(1-pyrimidin-2-yl-3,6-dihydro-2H-pyridin-5-yl)-2-[(3R)-3,4-dimethylpiperazin-1-yl]phenyl]-2-(trifluoromethyl)benzamide]
17 | 0.896 | C[C@@H]1CN(c2cc(F)c(-c3cnc4c(c3)CC(=O)N4)cc2NC(=O)c2c[nH]c(=O)cc2C(F)(F)F)C[C@H](C)N1C [Example 566, N-[4-fluoro-5-(2-oxo-1,3-dihydropyrrolo[2,3-b]pyridin-5-yl)-2-[(3R,5S)-3,4,5-trimethylpiperazin-1-yl]phenyl]-6-oxo-4-(trifluoromethyl)-1H-pyridine-3-carboxamide]
18 | 12.3 | C[C@@H]1CN(c2cc(F)c(-c3ccc4scnc4c3)cc2NC(=O)c2cn(C)c(=O)cc2C(F)F)C[C@H](C)N1C [Example 683, N-[5-(1,3-benzothiazol-5-yl)-4-fluoro-2-[(3R,5S)-3,4,5-trimethylpiperazin-1-yl]phenyl]-4-(difluoromethyl)-1-methyl-6-oxopyridine-3-carboxamide]
